{"source": "paper PMC12655819", "about": "(Pharmaceuticals, 2025)", "key": {"[1]": {"test": "Pharmacokinetics from total plasma levels (tMPA, tMPAG), LC-MS/MS", "type": "in vivo, human", "conditions": "total plasma level", "experimental": "(§1) The AUC0–4, Tmax, and Cmax parameters were calculated using the R (version 4.5.1) package software (R Core Team, 2025), supported by RStudio (version 2025.05.1+513) from Posit PBC software (Boston, MA, USA). […] The vMPA and vMPAG capillary blood levels were corrected using formulas validated in our department (partially published by Kocur et al.) and expressed as estimated capillary plasma concentrations. […] Individual PK profiles for each patient included in the study are provided in the Supplementary File (Figures S4 and S5).\nBriefly, 50 μL of plasma was diluted with 90 μL of deionized water, and 10 μL of IS (d3-MPA) was added. Next, 400 μL of the precipitation mixture (a 0.1 M aqueous zinc sulfate solution and acetonitrile, 50:50 (v/v)) was added. The sample was then shaken for 10 min at room temperature using an automatic rotary vortex (Ohaus, Parsippany, NJ, USA) and centrifuged for 10 min at 13,500× g at 4 °C thereafter. The supernatant was transferred into chromatographic vials and analyzed using LC-MS/MS. Sample processing was performed at the Department of Drug Chemistry, Pharmaceutical and Biomedical Analysis, Medical University of Warsaw, Poland.\n(§2) From each patient (if they consented to all sampling types), four samples were collected simultaneously at all defined time points of the dynamic PK profile (0, 0.5, 1, 2, and 4 h after drug administration). Whole blood was collected using standard venipuncture by a phlebotomist into a K3-EDTA test tube (Sarstedt, Nümbrecht, Germany). Plasma for analytical determination was obtained by centrifuging a portion of the whole blood and stored at −40 °C until assay. At the same time, 10 µL capillary blood samples were collected from a finger prick using the Mitra™ device (VAMS samples were stored in light-protected aluminum zip bags with desiccant at room temperature)."}, "[2]": {"test": "Pharmacokinetics from liquid (wet) saliva collected with Salivette (sMPA, sMPAG)", "type": "in vivo, human", "experimental": "as §1\nThe concentrations of sMPA and sMPAG in saliva were determined using a previously described LC-MS/MS method. Briefly, 100 µL of saliva was used for analysis. […] Samples were vortexed and evaporated to dryness. The dry residues were reconstituted in 100 μL of a mobile phase consisting of a 1:4 (v/v) mixture of methanol and water, both of which contained 0.1% formic acid. After double centrifugation, the samples were analyzed using a Shimadzu Ultra-Performance Liquid Chromatography (UPLC) system (Shimadzu Co., Kyoto, Japan) coupled with a triple quadrupole mass spectrometer (LCMS-8030; Simadzu Co., Kyoto, Japan). The method was linear over the concentration range of 2–500 μg/L for both sMPA and sMPAG. This part of the work was carried out with the support of the Centre of Innovative Pharmaceutical Technology, Poznan University of Medical Sciences (Poznan, Poland).\n(§3) Additionally, the unstimulated saliva samples were simultaneously collected using the Salivette® device (Sarstedt, Nümbrecht, Germany) and Mitra™ 20 µL microsampling tips (Neoteryx/Trajan, Torrance, CA, USA (all saliva samples simultaneously to plasma and capillary blood sampling: 0, 0.5, 1, 2, and 4 h after drug administration). Patients had not eaten for at least 30 min before saliva collection, and their mouths were rinsed with water. The study was conducted in accordance with the Declaration of Helsinki and the International Council for Harmonization Guideline for Good Clinical Practice. The protocol was approved by the Bioethics Committee of the Children’s Memorial Health Institute, Warsaw, Poland (approval No. 15/KBE/2023, with subsequent amendments). Written informed consent was obtained from all participants and their legal guardians."}, "[3]": {"test": "Pharmacokinetics from dried saliva collected with Mitra VAMS (vsMPA, vsMPAG)", "type": "in vivo, human", "experimental": "as §1\nSamples were sonicated (36 °C, 30 min), vortexed (15 min), and frozen (−20 °C, 15 min). After centrifugation (10 min, 25,155× g), 350 µL of supernatant was transferred to a total recovery borosilicate vial (Finneran, Vineland, NJ, USA) and evaporated to dryness under a stream of nitrogen (40 °C) using Ultravap® Levante (Porvair, Hampshire, Great Britain). The residue was reconstituted in 150 µL of mobile phase A, filtered in a Verex™ vial, and 5 µL was injected into the LC–MS/MS system. Analyses were performed at the Department of Drug Chemistry, Pharmaceutical and Biomedical Analysis, Medical University of Warsaw, Poland.\nas §3"}, "[4]": {"test": "Stability of analytes in dried saliva Mitra VAMS tips", "type": "physicochemical", "conditions": "dried saliva on Mitra VAMS tips, room temperature (light-protected with desiccant), n=6", "experimental": "Stability testing, a crucial component of method development and validation, was conducted through various experiments, including storage stability in the autosampler and stability of analytes in VAMS tips under different stress conditions. Analyte stability is deemed acceptable if the differences stay within the nominal range of ±15%. Additionally, the reproducibility of the injection was assessed during autosampler stability testing."}, "[5]": {"test": "Pharmacokinetics from capillary blood collected with Mitra VAMS (vMPA, vMPAG)", "type": "in vivo, human", "experimental": "as §1\nSubsequently, the tip (after at least 1 h of drying) was placed in an 1.5 mL Eppendorf-type test tube (Eppendorf AG, Hamburg, Germany) containing 150 μL of pure deionized water. Next, the test tube was shaken at room temperature for 1 h using the automatic rotary vortex. Subsequently, 10 μL of IS solution and 150 μL of the precipitation mixture were added. The sample was then processed as described in Section 4.3.4. Sample processing was carried out at the Department of Drug Chemistry, Pharmaceutical and Biomedical Analysis, Medical University of Warsaw, Poland [21].\nas §2"}, "[6]": {"conditions": "human, 0 h (pre-dose), n = 20, mean ± SD, read-out: C0 concentration"}, "[7]": {"conditions": "human, 0.5 h post-dose, n = 20, mean ± SD, read-out: C0.5 concentration"}, "[8]": {"conditions": "human, 1 h post-dose, n = 20, mean ± SD, read-out: C1 concentration"}, "[9]": {"conditions": "human, 2 h post-dose, n = 20, mean ± SD, read-out: C2 concentration"}, "[10]": {"conditions": "human, 4 h post-dose, n = 20, mean ± SD, read-out: C4 concentration"}, "[11]": {"conditions": "normalized to MMF dose, n = 20, mean (range)"}}, "note": "Marks after values point to notes of the source that are not given here."}
{"smiles": "COc1c(C)c2c(c(O)c1C/C=C(\\C)CCC(=O)O)C(=O)OC2", "note": "[MPA, Mycophenolic acid]", "values": [{"measurement": "Tmax", "setting": "[1]; human, plasma, pediatric renal transplant recipients (n = 20) on MMF, mean (range), read-out: Tmax", "value": "30 to 60", "unit": "min"}, {"measurement": "concentration at 0 h", "setting": "[1]; [6]", "value": "2150 ± 1620", "unit": "ng/mL"}, {"measurement": "concentration at 0.5 h", "setting": "[1]; [7]", "value": "10700 ± 9560", "unit": "ng/mL"}, {"measurement": "concentration at 1 h", "setting": "[1]; [8]", "value": "11400 ± 6810", "unit": "ng/mL"}, {"measurement": "concentration at 2 h", "setting": "[1]; [9]", "value": "4680 ± 3410", "unit": "ng/mL"}, {"measurement": "concentration at 4 h", "setting": "[1]; [10]", "value": "2230 ± 2390", "unit": "ng/mL"}, {"measurement": "Cmax", "setting": "[1]; human, pediatric renal transplant recipients (n = 20) on MMF (CellCept), steady state, 0–4 h post-dose, mean (range), read-out: Cmax", "value": 14400, "unit": "ng/mL"}, {"measurement": "AUC(0-t)", "setting": "[1]; human, pediatric renal transplant recipients (n = 20) on MMF, mean (range)", "value": 23.8, "unit": "mg·h/L"}, {"measurement": "AUC(0–4) Normalized to Drug Dose", "setting": "[1]; [11]", "value": "83.67 (22.44–447.22) ^d mg × h/mL × g"}, {"measurement": "Tmax", "setting": "[1]; pediatric renal transplant recipients (n = 20) on MMF, mean (range), listed as tMPA", "value": "0.78 (0.50–1.00) h"}, {"measurement": "concentration at 0 h", "setting": "[2]; human, unstimulated, Salivette, wet saliva, 0 h (pre-dose), n = 20, mean ± SD, read-out: C0 concentration", "value": "8.24 ± 5.66", "unit": "ng/mL"}, {"measurement": "concentration at 0.5 h", "setting": "[2]; human, unstimulated, Salivette, wet saliva, 0.5 h post-dose, n = 20, mean ± SD, read-out: C0.5 concentration", "value": "27.2 ± 7.86", "unit": "ng/mL"}, {"measurement": "concentration at 1 h", "setting": "[2]; human, unstimulated, Salivette, wet saliva, 1 h post-dose, n = 20, mean ± SD, read-out: C1 concentration", "value": "51.6 ± 45.8", "unit": "ng/mL"}, {"measurement": "concentration at 2 h", "setting": "[2]; human, unstimulated, Salivette, wet saliva, 2 h post-dose, n = 20, mean ± SD, read-out: C2 concentration", "value": "17.7 ± 16.1", "unit": "ng/mL"}, {"measurement": "concentration at 4 h", "setting": "[2]; human, unstimulated, Salivette, wet saliva, 4 h post-dose, n = 20, mean ± SD, read-out: C4 concentration", "value": "8 ± 9.49", "unit": "ng/mL"}, {"measurement": "AUC(0-t)", "setting": "[2]; human, unstimulated, Salivette, wet saliva, pediatric renal transplant recipients (n = 20) on MMF, mean (range)", "value": 107, "unit": "ng·h/mL"}, {"measurement": "Tmax", "setting": "[2]; human, unstimulated, Salivette, wet saliva, pediatric renal transplant recipients (n = 20) on MMF, mean (range), read-out: Tmax", "value": 51, "unit": "min"}, {"measurement": "Cmax", "setting": "[2]; human, wet saliva (unstimulated, Salivette), pediatric renal transplant recipients (n = 20) on MMF, 0–4 h post-dose, mean (range), read-out: Cmax", "value": 83.5, "unit": "ng/mL"}, {"measurement": "AUC(0–4) Normalized to Drug Dose", "setting": "[2]; wet saliva, normalized to MMF dose, n = 20, mean (range)", "value": "300.18 (32.29–2716.80) ^c µg × h/mL × g"}, {"measurement": "AUC(0–4) Normalized to Drug Dose", "setting": "[3]; dried saliva (Mitra VAMS), normalized to MMF dose, n = 20, mean (range)", "value": "305.78 (33.88–2937.03) ^c µg × h/mL × g"}, {"measurement": "Cmax", "setting": "[3]; human, dried saliva (Mitra VAMS 20 µL), pediatric renal transplant recipients (n = 20) on MMF, 0–4 h post-dose, mean (range), read-out: Cmax", "value": 84.1, "unit": "ng/mL"}, {"measurement": "concentration at 0 h", "setting": "[3]; human, dried saliva (Mitra VAMS), 0 h (pre-dose), n = 20, mean ± SD, read-out: C0 concentration", "value": "7.54 ± 4.89", "unit": "ng/mL"}, {"measurement": "concentration at 0.5 h", "setting": "[3]; human, dried saliva (Mitra VAMS), 0.5 h post-dose, n = 20, mean ± SD, read-out: C0.5 concentration", "value": "27.7 ± 9.14", "unit": "ng/mL"}, {"measurement": "concentration at 1 h", "setting": "[3]; human, dried saliva (Mitra VAMS), 1 h post-dose, n = 20, mean ± SD, read-out: C1 concentration", "value": "52.2 ± 40.9", "unit": "ng/mL"}, {"measurement": "concentration at 2 h", "setting": "[3]; human, dried saliva (Mitra VAMS), 2 h post-dose, n = 20, mean ± SD, read-out: C2 concentration", "value": "17.1 ± 16.7", "unit": "ng/mL"}, {"measurement": "concentration at 4 h", "setting": "[3]; human, dried saliva (Mitra VAMS), 4 h post-dose, n = 20, mean ± SD, read-out: C4 concentration", "value": "7.25 ± 8.03", "unit": "ng/mL"}, {"measurement": "Tmax", "setting": "[3]; human, dried saliva (Mitra VAMS), pediatric renal transplant recipients (n = 20) on MMF, mean (range), read-out: Tmax", "value": 51, "unit": "min"}, {"measurement": "recovery at 1 week", "setting": "[4]; HQC", "value": 97.2, "unit": "%"}, {"measurement": "recovery at 2 weeks", "setting": "[4]; HQC", "value": 96, "unit": "%"}, {"measurement": "recovery at 24 hours", "setting": "[4]; HQC", "value": 99.9, "unit": "%"}, {"measurement": "recovery at 3 days", "setting": "[4]; HQC", "value": 100, "unit": "%"}, {"measurement": "recovery at 1 week", "setting": "[4]; LQC", "value": 98, "unit": "%"}, {"measurement": "recovery at 2 weeks", "setting": "[4]; LQC", "value": 95.6, "unit": "%"}, {"measurement": "recovery at 24 hours", "setting": "[4]; LQC", "value": 101, "unit": "%"}, {"measurement": "recovery at 3 days", "setting": "[4]; LQC", "value": 99.1, "unit": "%"}, {"measurement": "concentration at 0 h", "setting": "[5]; [6]", "value": "1800 ± 1300", "unit": "ng/mL"}, {"measurement": "concentration at 0.5 h", "setting": "[5]; [7]", "value": "9660 ± 8960", "unit": "ng/mL"}, {"measurement": "concentration at 1 h", "setting": "[5]; [8]", "value": "10100 ± 5970", "unit": "ng/mL"}, {"measurement": "concentration at 2 h", "setting": "[5]; [9]", "value": "4430 ± 3000", "unit": "ng/mL"}, {"measurement": "concentration at 4 h", "setting": "[5]; [10]", "value": "1770 ± 2010", "unit": "ng/mL"}, {"measurement": "AUC(0-t)", "setting": "[5]; human, corrected to estimated capillary plasma concentration, n = 20, mean (range)", "value": 21400, "unit": "ng·h/mL"}, {"measurement": "Cmax", "setting": "[5]; human, corrected to estimated capillary plasma concentration, pediatric renal transplant recipients (n = 20) on MMF, mean (range), read-out: Cmax", "value": 12900, "unit": "ng/mL"}, {"measurement": "Tmax", "setting": "[5]; human, pediatric renal transplant recipients (n = 20) on MMF, mean (range), read-out: Tmax", "value": 46.8, "unit": "min"}, {"measurement": "AUC(0–4) Normalized to Drug Dose", "setting": "[5]; [11]", "value": "68.95 (20.71–444.79) ^d mg × h/mL × g"}]}
